According to patent US20160046597A1, “RORC2 INHIBITORS AND METHODS OF USE THEREOF” (PFIZER INC., priority 2013, published 2016):

Biological target: T1, RORC2 ligand binding domain (6-His-RORC2 LBD) (Homo sapiens, UniProt P51449)
T1 construct: made in house; host or cells: E. coli
T1 sequence (P51449 269-508 limits assumed): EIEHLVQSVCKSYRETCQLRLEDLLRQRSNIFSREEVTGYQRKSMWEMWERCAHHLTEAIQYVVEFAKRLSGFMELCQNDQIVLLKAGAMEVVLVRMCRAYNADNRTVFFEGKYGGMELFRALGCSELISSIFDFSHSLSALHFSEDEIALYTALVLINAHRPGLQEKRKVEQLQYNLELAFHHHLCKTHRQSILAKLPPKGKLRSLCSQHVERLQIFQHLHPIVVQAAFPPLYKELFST
Assay: Co-activator recruitment by TR-FRET (RORC2 FRET)
Assay type: biochemical
Settings: 6.3 nM RORC2 LBD, 200 nM SRC1-2 coactivator peptide, 3 hours room temperature
Source text: The activity of compound of the invention can be determined by a co-activator recruitment by TR-FRET (time-resolved fluorescence resonance energy transfer) assay. […] Due to the long lasting fluorescence emission of Europium, the non-specific, short-lived fluorescence is time-resolved (TR) from the fluorescence of interest. Inhibitors of the interaction of receptor and coactivator peptide are detected by a decrease in TR-FRET signal.
Specifically, in one embodiment the aforementioned assay was performed as outlined below. The assay was carried out in black polystyrene, 384-well plates in a total assay volume of 50.5 μL. The assay buffer contained 50 mM TRIS-HCL pH 7.5, 1 mM NaCl, 2 mM MgCl2, 0.5 mg/mL bovine serum albumin, and 5 mM dithiothreitol.

SMILES	IC50
Cn1cc(C2CCN(C(=O)[C@H]3CCC[C@H]3O)CC2)c2cc(NC(=O)c3cc(C#N)ccn3)ccc21 (relative stereo) [Example 13, 4-cyano-N-[3-(1-{[(1S*,2R*)-2-hydroxycyclopentyl]carbonyl}piperidin-4-yl)-1-methyl-1 2-carboxamide]	19.8 nM
CC(C)CC(=O)N1CCC(c2cn(C)c3ccc(NC(=O)c4cccc(C#N)c4)cc23)CC1 [Example 2, 3-cyano-N-(1-methyl-3-(1-(3-methylbutanoyl)piperidin-4-yl)-1H-indol-5-yl)benzamide]	17.9 nM
CC[C@H](C)[C@H](O)C(=O)N1CCC(c2cn(C)c3ccc(NC(=O)c4cccc(C#N)c4)cc23)CC1 [Example 3, 3-cyano-N-(3-(1-((2S,3S)-2-hydroxy-3-methylpentanoyl)piperidin-4-yl)-1-methyl-1H-indol-5-yl)benzamide]	387 nM
Cn1cc(C2CCN(C(=O)C3CC(F)(F)C3)CC2)c2cc(NC(=O)c3cc(C#N)ccn3)ccc21 [Example 9, 4-cyano-N-(3-{1-[(3,3-difluorocyclobutyl)carbonyl]piperidin-4-yl}-1-methyl-1H-indol-5-yl)pyridine-2-carboxamide]	8.7 nM
Cc1cc(C(=O)N2CCC(c3cn(C)c4ccc(NC(=O)c5cc(C#N)ccn5)cc34)CC2)no1 [Example 10, 4-cyano-N-(1-methyl-3-{1-[(5-methylisoxazol-3-yl)carbonyl]piperidin-4-yl}-1H-indol-5-yl)pyridine-2-carboxamide]	42.9 nM
Cn1nccc1C(=O)N1CCC(c2cn(C)c3ccc(NC(=O)c4cc(C#N)ccn4)cc23)CC1 [Example 11, 4-cyano-N-(1-methyl-3-{1-[(1-methyl-1H-pyrazol-5-yl)carbonyl]piperidin-4-yl}-1H-indol-5-yl)pyridine-2-carboxamide]	34.6 nM
Cn1cc(C2CCN(C(=O)CC3CCOCC3)CC2)c2cc(NC(=O)c3cc(C#N)ccn3)ccc21 [Example 12, 4-cyano-N-{1-methyl-3-[1-(tetrahydro-2H-pyran-4-ylacetyl)piperidin-4-yl]-1H-indol-5-yl}pyridine-2-carboxamide]	24.3 nM
Cn1cc(C2CCN(C(=O)C3CCCOC3)CC2)c2cc(NC(=O)c3cc(C#N)ccn3)ccc21 (stereo not drawn) [Example 15, 4-cyano-N-{1-methyl-3-[1-(tetrahydro-2H-pyran-3-ylcarbonyl)piperidin-4-yl]-1H-indol-5-yl}pyridine-2-carboxamide]	15.9 nM
CNc1ncccc1C(=O)N1CCC(c2cn(C)c3ccc(NC(=O)c4cc(C#N)ccn4)cc23)CC1 [Example 16, 4-cyano-N-[1-methyl-3-(1-{[2-(methylamino)pyridin-3-yl]carbonyl}piperidin-4-yl)-1H-indol-5-yl]pyridine-2-carboxamide]	132 nM
Cn1cc(C2CCN(C(=O)C3CCOCC3)CC2)c2cc(NC(=O)c3cc(C#N)ccn3)ccc21 [Example 19, 4-cyano-N-{1-methyl-3-[1-(tetrahydro-2H-pyran-4-ylcarbonyl)piperidin-4-yl]-1H-indol-5-yl}pyridine-2-carboxamide]	40.6 nM
Cn1cc(C2CCN(C(=O)C(O)C(F)(F)F)CC2)c2cc(NC(=O)c3cc(C#N)ccn3)ccc21 (stereo not drawn) [Example 23, 4-cyano-N-{1-methyl-3-[1-(3,3,3-trifluoro-2-hydroxypropanoyl)piperidin-4-yl]-1H-indol-5-yl}pyridine-2-carboxamide]	334 nM
Cn1cc(C2CCN(C(=O)c3ncccn3)CC2)c2cc(NC(=O)c3cc(C#N)ccn3)ccc21 [Example 24, 4-cyano-N-{1-methyl-3-[1-(pyrimidin-2-ylcarbonyl)piperidin-4-yl]-1H-indol-5-yl}pyridine-2-carboxamide]	246 nM
Cn1cc(C2CCN(C(=O)c3cnccn3)CC2)c2cc(NC(=O)c3cc(C#N)ccn3)ccc21 [Example 26, 4-cyano-N-{1-methyl-3-[1-(pyrazin-2-ylcarbonyl)piperidin-4-yl]-1H-indol-5-yl}pyridine-2-carboxamide]	87 nM
Cn1cc(C2CCN(C(=O)[C@H]3CC[C@@H](O)CC3)CC2)c2cc(NC(=O)c3cc(C#N)ccn3)ccc21 [Example 29, 4-cyano-N-(3-{1-[(cis-4-hydroxycyclohexyl)carbonyl]piperidin-4-yl}-1-methyl-1H-indol-5-yl)pyridine-2-carboxamide]	56.2 nM

The remaining compounds from weak to strong by IC50, led by results:

IC50	SMILES
1440 nM	Cn1cc(C2CCN(C(=O)c3cccc(O)n3)CC2)c2cc(NC(=O)c3cc(C#N)ccn3)ccc21 [Example 21, 4-cyano-N-(3-{1-[(6-hydroxypyridin-2-yl)carbonyl]piperidin-4-yl}-1-methyl-1H-indol-5-yl)pyridine-2-carboxamide]
1420 nM	Cn1cc(C2CCN(C(=O)[C@H]3CC[C@H](O)CC3)CC2)c2cc(NC(=O)c3cc(C#N)ccn3)ccc21 [Example 27, 4-cyano-N-(3-{1-[(trans-4-hydroxycyclohexyl)carbonyl]piperidin-4-yl}-1-methyl-1H-indol-5-yl)pyridine-2-carboxamide]
590 nM	CC(C)C[C@H](O)C(=O)N1CCC(c2cn(C)c3ccc(NC(=O)c4cccc(C#N)c4)cc23)CC1 [Example 4, 3-cyano-N-(3-(1-((2S)-2-hydroxy-4-methylpentanoyl)piperidin-4-yl)-1-methyl-1H-indol-5-yl)benzamide]
384 nM	Cn1cc(C2CCN(C(=O)C(C)(C)CO)CC2)c2cc(NC(=O)c3cc(C#N)ccn3)ccc21 [Example 22, 4-cyano-N-{3-[1-(3-hydroxy-2,2-dimethylpropanoyl)piperidin-4-yl]-1-methyl-1H-indol-5-yl}pyridine-2-carboxamide]
246 nM	Cn1cc(C2CCN(C(=O)c3ccncn3)CC2)c2cc(NC(=O)c3cc(C#N)ccn3)ccc21 [Example 20, 4-cyano-N-{1-methyl-3-[1-(pyrimidin-4-ylcarbonyl)piperidin-4-yl]-1H-indol-5-yl}pyridine-2-carboxamide]
106 nM	Cn1cc(C2CCN(C(=O)[C@H]3CC[C@@H](O)CC3)CC2)c2cc(NC(=O)c3cccc(C#N)c3)ccc21 [Example 5, 3-cyano-N-(3-{1-[(cis-4-hydroxycyclohexyl)carbonyl]piperidin-4-yl}-1-methyl-1H-indol-5-yl)benzamide]
88.1 nM	CC(C)C(O)C(=O)N1CCC(c2cn(C)c3ccc(NC(=O)c4cc(C#N)ccn4)cc23)CC1 (stereo not drawn) [Example 28, 4-cyano-N-{3-[1-(2-hydroxy-3-methylbutanoyl)piperidin-4-yl]-1-methyl-1H-indol-5-yl}pyridine-2-carboxamide]
31.6 nM	Cn1cc(C2CCN(C(=O)C3CCCO3)CC2)c2cc(NC(=O)c3cc(C#N)ccn3)ccc21 (stereo not drawn) [Example 25, 4-cyano-N-{1-methyl-3-[1-(tetrahydrofuran-2-ylcarbonyl)piperidin-4-yl]-1H-indol-5-yl}pyridine-2-carboxamide]
26.1 nM	Cn1cc(C2CCN(C(=O)c3cscn3)CC2)c2cc(NC(=O)c3cc(C#N)ccn3)ccc21 [Example 18, 4-cyano-N-{1-methyl-3-[1-(1,3-thiazol-4-ylcarbonyl)piperidin-4-yl]-1H-indol-5-yl}pyridine-2-carboxamide]
7.3 nM	Cn1cc(C2CCN(C(=O)C3CCC(F)(F)C3)CC2)c2cc(NC(=O)c3cc(C#N)ccn3)ccc21 (stereo not drawn) [Example 8, 4-cyano-N-(3-{1-[(3,3-difluorocyclopentyl)carbonyl]piperidin-4-yl}-1-methyl-1H-indol-5-yl)pyridine-2-carboxamide]
